The target in the test is Factor D (Homo sapiens (Human), UniProt P00746). Briefly: biochemical. The format is biochemical. The following applies: read-out: IC50.
Sequence of Factor D (P00746 26-253): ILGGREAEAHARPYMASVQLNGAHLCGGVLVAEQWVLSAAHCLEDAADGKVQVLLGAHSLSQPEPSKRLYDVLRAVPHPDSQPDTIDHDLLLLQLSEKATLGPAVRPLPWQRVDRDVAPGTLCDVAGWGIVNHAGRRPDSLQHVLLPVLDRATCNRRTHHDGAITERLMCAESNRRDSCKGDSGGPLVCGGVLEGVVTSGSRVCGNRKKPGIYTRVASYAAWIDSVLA
Consider `CN1CCN(Cc2cc(Cl)c(F)c(CNC(=O)[C@@H]3C[C@@H](F)CN3C(=O)Nc3cn(C(N)=O)c4ccccc34)c2)CC1` [Example 10, (2S,4R)-4-Fluoro-pyrrolidine-1,2-dicarboxylic acid 1-[(1-carbamoyl-1H-indol-3-yl)-amide] 2-[3-chloro-2-fluoro-5-(4-methyl-piperazin-1-ylmethyl)-benzylamide]], for which the IC50 (as a rule, the point on the concentration scale where inhibition reaches its midpoint) was 0.604 µM. Under `NC(=O)n1cc(NC(=O)N2C[C@H](F)C[C@H]2C(=O)NCc2cccc(C(=O)O)c2)c2ccccc21` [Example 24] stands 1.7 µM; under `CCc1cccc(CNC(=O)[C@@H]2C[C@H](N)CN2C(=O)Nc2cn(C(N)=O)c3ccccc23)c1` [Example 100, (2S,4S)-4-Amino-pyrrolidine-1,2-dicarboxylic acid 1-[(1-carbamoyl-1H-indol-3-yl)-amide] 2-(3-ethyl-benzylamide)], 17.6 µM; under `COC[C@@H](NC(=O)[C@@H]1C[C@H]2C[C@H]2N1C(=O)Cc1nc(C(C)=O)c2ccccn12)c1cccc(Cl)c1F` [Example 678, (1R,3S,5R)-2-[2-(1-Acetyl-imidazo[1,5-a]pyridin-3-yl)-acetyl]-2-aza-bicyclo [3.1.0]hexane-3-carboxylic acid [(S)-1-(3-chloro-2-fluoro-phenyl)-2-methoxy-ethyl]-amide], 0.04 µM. Under `NC(=O)n1cc(CC(=O)N2[C@@H]3C[C@@H]3C[C@H]2C(=O)N[C@H](CCO)c2cccc(Cl)c2F)c2ccccc21` [Example 457, 3-(2-{(1R,3S,5R)-3-[(R)-1-(3-Chloro-2-fluoro-phenyl)-3-hydroxy-propylcarbamoyl]-2-azabicyclo[3.1.0]hex-2-yl}-2-oxo-ethyl)-indole-1-carboxylic acid amide] stands 0.107 µM. `NC(=O)n1cc(CC(=O)N2C[C@H](F)C[C@H]2C(=O)Nc2cccc(OC(F)(F)F)c2F)c2ccccc21` [Example 442, 3-{2-[(2S,4R)-4-Fluoro-2-(2-fluoro-3-trifluoromethoxy-phenylcarbamoyl)-pyrrolidin-1-yl]-2-oxo-ethyl}-indole-1-carboxylic acid amide]: the IC50 was found to be 0.85 µM. On to `CC(=O)c1nn(CC(=O)N2[C@@H]3C[C@@H]3C[C@H]2C(=O)NCc2cccc(Cl)c2F)c2cnccc12` [Example 627, (1R,3S,5R)-2-[2-(3-Acetyl-pyrazolo[3,4-c]pyridin-1-yl)-acetyl]-2-aza-bicyclo [3.1.0]hexane-3-carboxylic acid 3-chloro-2-fluoro-benzylamide], for which the IC50 was found to be 0.016 µM. For the compound `NC(=O)c1nn(CC(=O)N2[C@@H]3C[C@@H]3C[C@H]2C(=O)Nc2cccc(Br)c2F)c2cnccc12` [Example 668, 1-{2-[(1R,3S,5R)-3-(3-Bromo-2-fluoro-phenylcarbamoyl)-2-aza-bicyclo[3.1.0]hex-2-yl]-2-oxo-ethyl}-1H-pyrazolo[3,4-c]pyridine-3-carboxylic acid amide], the IC50 amounted to 0.019 µM. With `COC(=O)COc1ccc2c(c1)c(NC(=O)N1[C@@H]3C[C@@H]3C[C@H]1C(=O)NCc1cccc(Cl)c1F)cn2C(N)=O` [Example 133, (1-carbamoyl-3-{[(1R,3S,5R)-3-(3-chloro-2-fluoro-benzylcarbamoyl)-2-azabicyclo[3.1.0]hexane-2-carbonyl]amino}-1H-indol-5-yloxy)-acetic acid methyl ester] the figure was 0.006 µM; with `COc1ccc2c(c1)c(NC(=O)N1C3CC3C[C@H]1C(=O)NCc1cccc(Cl)c1F)cn2C(N)=O` (stereo partly drawn) [Example 300, (1R,3S,5R)-2-Aza-bicyclo[3.1.0]hexane-2,3-dicarboxylic acid 2-[(1-carbamoyl-5-methoxy-1H-indol-3-yl)-amide] 3-(3-chloro-2-fluoro-benzylamide)], 0.004 µM.

Take `COC(=O)c1ccc(NC(=O)[C@@H]2C[C@@H](F)CN2C(=O)Nc2cn(C(N)=O)c3ccccc23)cc1Br` [Example 156, 2-Bromo-4-{[(2S,4R)-1-(1-carbamoyl-1H-indol-3-ylcarbamoyl)-4-fluoro-pyrrolidine-2-carbonyl]-amino}-benzoic acid methyl ester]: the IC50 was determined as 0.15 µM. With “(1R,3S,5S)-5-Hydroxymethyl- 2-aza-bicyclo[3.1.0]hexane- 2,3-dicarboxylic acid 3-(3- chloro-2-fluoro-benzylamide) 2-[(1-methylcarbamoyl-1H- indol-3-yl)-amide] [Example 265]” the figure was 0.083 µM. `NC(=O)n1cc(NC(=O)N2CCS[C@H]2C(=O)NCc2cccc(F)c2F)c2ccccc21` [Example 169, (S)-Thiazolidine-2,3-dicarboxylic acid 3-[(1-carbamoyl-1H-indol-3-yl)-amide] 2-(2,3-difluoro-benzylamide)]: the IC50 is 0.268 µM.

As to `C=CCOc1ccc2c(NC(=O)N3C4CC4C[C@H]3C(=O)NCc3cccc(Cl)c3F)cn(C(N)=O)c2c1` (stereo partly drawn) [Example 311, (1R,3S,5R)-2-Aza-bicyclo[3.1.0]hexane-2,3-dicarboxylic acid 2-[(6-allyloxy-1-carbamoyl-1H-indol-3-yl)-amide] 3-(3-chloro-2-fluoro-benzylamide)], the IC50 is 0.07 µM. With `C[C@@]1(F)C[C@@H](C(=O)NCc2cccc(Cl)c2F)N(C(=O)Cc2cn(C(N)=O)c3ccc(OCCO)cc23)C1` [Example 459, 3-{2-[(2S,4R)-2-(3-Chloro-2-fluoro-benzylcarbamoyl)-4-fluoro-4-methyl-pyrrolidin-1-yl]-2-oxo-ethyl)-5-(2-hydroxy-ethoxy)-indole-1-carboxylic acid amide] the figure was 0.211 µM; with `NC(=O)n1cc(NC(=O)N2C[C@H](F)C[C@H]2CNS(=O)(=O)c2ccc(Cl)s2)c2ccccc21` [Example 111, 3-({(2S,4R)-2-[(5-Chloro-thiophene-2-sulfonylamino)-methyl]-4-fluoro-pyrrolidine-1-carbonyl}-amino)-indole-1-carboxylic acid amide], 0.06 µM.

As to `NC(=O)n1cc(NC(=O)N2C[C@H](F)C[C@H]2C(=O)N[C@H](CO)c2cccc(Cl)c2F)c2ccccc21` [Example 5, (2S,4R)-4-Fluoro-pyrrolidine-1,2-dicarboxylic acid 1-[(1-carbamoyl-1H-indol-3-yl)-amide] 2-{[(S)-1-(3-chloro-2-fluoro-phenyl)-2-hydroxy-ethyl]-amide}], the IC50 came out at 0.03 µM.

Turning to “(2S,4R)-4-Fluoro-pyrrolidine-1,2-dicarboxylic acid 1-[(3-carbamoyl-indolizin-1-yl)-amide]2-[(3-trifluoromethoxy-phenyl)-amide] [Example 122]”, the IC50 came out at 0.15 µM. Under `C[C@H]1C[C@@H](C(=O)NCc2cccc(Cl)c2F)N(C(=O)Nc2cn(C(N)=O)c3ccccc23)C1` [Example 182, (2S,4S)-4-Methyl-pyrrolidine-1,2-dicarboxylic acid 1-[(1-carbamoyl-1H-indol-3-yl)-amide] 2-(3-chloro-2-fluoro-benzylamide)] stands 0.063 µM; under `NC(=O)c1nn(CC(=O)N2CCCC[C@H]2C(=O)NCc2cccc(Cl)c2F)c2cnccc12` [Example 656, 1-{2-[(S)-2-(3-Chloro-2-fluoro-benzylcarbamoyl)-piperidin-1-yl]-2-oxo-ethyl}-1H-pyrazolo[3,4-c]pyridine-3-carboxylic acid amide], 0.358 µM. With `CC(C)(C)c1cc(NC(=O)[C@@H]2C[C@@H](F)CN2C(=O)Nc2cn(C(N)=O)c3ccccc23)ccn1` [Example 317, (2S,4R)-4-Fluoro-pyrrolidine-1,2-dicarboxylic acid 2-[(2-tert-butyl-pyridin-4-yl)-amide] 1-[(1-carbamoyl-1H-indol-3-yl)-amide]] the figure was 2.8 µM; with `NC[C@@]1(F)C[C@@H](C(=O)NCc2cccc(Cl)c2F)N(C(=O)Nc2cn(C(N)=O)c3ccccc23)C1` [Example 409, 2S,4S)-4-Aminomethyl-4-fluoro-pyrrolidine-1,2-dicarboxylic acid 1-[(1-carbamoyl-1H-indol-3-yl)-amide]2-(3-chloro-2-fluoro-benzylamide], 0.025 µM. With `CO[C@H]1[C@@H](C(=O)NCc2cccc(Cl)c2F)N(C(=O)Cn2nc(C(N)=O)c3ccncc32)C[C@@H]1F` [Example 662, 1-{2-[(2S,3S,4S)-2-(3-Chloro-2-fluoro-benzylcarbamoyl)-4-fluoro-3-methoxy-pyrrolidin-1-yl]-2-oxo-ethyl}-1H-pyrazolo[3,4-c]pyridine-3-carboxylic acid amide] the figure was 0.013 µM; with `CN(C)C[C@@H](NC(=O)[C@@H]1C[C@H]2C[C@H]2N1C(=O)Cc1cn(C(N)=O)c2ccccc12)c1cccc(Cl)c1F` [Example 458, 3-(2-{(1R,3S,5R)-3-[(S)-1-(3-Chloro-2-fluoro-phenyl)-2-dimethylamino-ethylcarbamoyl]-2-aza-bicyclo[3.1.0]hex-2-yl}-2-oxo-ethyl)-indole-1-carboxylic acid amide], 0.169 µM; with `CC(=O)c1cn(CC(=O)N2C[C@H](F)C[C@H]2C(=O)NCc2cccc(Cl)c2F)c2cc(OCc3ccc(C(=O)O)cc3)ccc12` [Example 602, 4-(3-Acetyl-1-{2-[(2S,4R)-2-(3-chloro-2-fluoro-benzylcarbamoyl)-4-fluoro-pyrrolidin-1-yl]-2-oxo-ethyl}-1H-indol-6-yloxymethyl)-benzoic acid], 0.227 µM.

For the compound `NC(=O)n1cc(NC(=O)N2C[C@H](F)C[C@H]2C(=O)NCc2cncc(Cl)c2)c2ccccc21` [Example 237, (2S,4R)-4-Fluoro-pyrrolidine-1,2-dicarboxylic acid 1-[(1-carbamoyl-1H-indol-3-yl)-amide] 2-[(5-chloro-pyridin-3-ylmethyl)-amide]], the IC50 worked out at 0.07 µM. With `NC(=O)n1cc(NC(=O)N2C[C@@H](N)C[C@H]2C(=O)NCc2cc(Cl)ccc2F)c2ccccc21` [Example 55, (2S,4S)-4-Amino-pyrrolidine-1,2-dicarboxylic acid 1-[(1-carbamoyl-1H-indol-3-yl)-amide] 2-(5-chloro-2-fluoro-benzylamide)] the figure was 0.125 µM; with `COc1cccc(CNC(=O)[C@@H]2C[C@H](N)CN2C(=O)Nc2cn(C(N)=O)c3ccccc23)c1` [Example 36, (2S,4S)-4-Amino-pyrrolidine-1,2-dicarboxylic acid 1-[(1-carbamoyl-1H-indol-3-yl)-amide] 2-(3-methoxy-benzylamide)], 3.25 µM.

Values taken from US9085555B2, “Complement pathway modulators and uses thereof” (priority 2011, dated 2015).
